Data published in ChEMBL document CHEMBL4196018, “New antitumor anthra[2,3-b]furan-3-carboxamides: Synthesis and structure-activity relationship” (Eur J Med Chem, 2018).
Active and inactive are the calls of the source. No cut-off for these calls is given here.

Tests used:
[1] = Resistance index, ratio of IC50 for p53 knockout human HCT116 cells to IC50 for human HCT116 cells; assay type: functional
HCT-116 [2] = assay: Antiproliferative activity against p53 knockout human HCT116 cells after 72 hrs by MTT assay; assay type: functional, cell-based; conditions: HCT-116, 72 h
CCRF-CEM = assay: Antiproliferative activity against human CEM cells after 72 hrs by MTT assay; assay type: functional, cell-based
K562 = assay: Antiproliferative activity against human K562 cells after 72 hrs by MTT assay; assay type: functional, cell-based; conditions: K562, 72 h
HeLa = assay: Antiproliferative activity against human HeLa cells after 72 hrs by MTT assay; assay type: functional, cell-based
HCT-116 [3] = assay: Antiproliferative activity against human HCT116 cells after 72 hrs by MTT assay; assay type: functional, cell-based; conditions: HCT-116, 72 h
[4] = Antiproliferative activity against human K562/4 cells after 72 hrs by MTT assay; assay type: functional, cell-based; conditions: K562/4, 72 h
[5] = Resistance index, ratio of IC50 for human K562/4 cells to IC50 for human K562 cells; assay type: functional
L1210 = assay: Antiproliferative activity against mouse L1210 cells after 48 hrs by MTT assay; assay type: functional, cell-based; conditions: L1210, 48 h
TMK-1 [6] = assay: Induction of apoptosis in human TMK1 cells at 1 uM after 24 hrs by Annexin V-FITC staining based flow cytometry relative to control; assay type: functional
[7] = Drug uptake in human K562 cells at 2 uM after 1 to 24 hrs by flow cytometry; assay type: ADME, cell-based; conditions: k562, 2 µM
[8] = target: T1, DNA topoisomerase 1 (Homo sapiens) (UniProt P11387); assay: Inhibition of human topoisomerase-1 using supercoiled pBR322 DNA as substrate after 30 mins by agarose gel electrophoresis method
T1 sequence (whole entry): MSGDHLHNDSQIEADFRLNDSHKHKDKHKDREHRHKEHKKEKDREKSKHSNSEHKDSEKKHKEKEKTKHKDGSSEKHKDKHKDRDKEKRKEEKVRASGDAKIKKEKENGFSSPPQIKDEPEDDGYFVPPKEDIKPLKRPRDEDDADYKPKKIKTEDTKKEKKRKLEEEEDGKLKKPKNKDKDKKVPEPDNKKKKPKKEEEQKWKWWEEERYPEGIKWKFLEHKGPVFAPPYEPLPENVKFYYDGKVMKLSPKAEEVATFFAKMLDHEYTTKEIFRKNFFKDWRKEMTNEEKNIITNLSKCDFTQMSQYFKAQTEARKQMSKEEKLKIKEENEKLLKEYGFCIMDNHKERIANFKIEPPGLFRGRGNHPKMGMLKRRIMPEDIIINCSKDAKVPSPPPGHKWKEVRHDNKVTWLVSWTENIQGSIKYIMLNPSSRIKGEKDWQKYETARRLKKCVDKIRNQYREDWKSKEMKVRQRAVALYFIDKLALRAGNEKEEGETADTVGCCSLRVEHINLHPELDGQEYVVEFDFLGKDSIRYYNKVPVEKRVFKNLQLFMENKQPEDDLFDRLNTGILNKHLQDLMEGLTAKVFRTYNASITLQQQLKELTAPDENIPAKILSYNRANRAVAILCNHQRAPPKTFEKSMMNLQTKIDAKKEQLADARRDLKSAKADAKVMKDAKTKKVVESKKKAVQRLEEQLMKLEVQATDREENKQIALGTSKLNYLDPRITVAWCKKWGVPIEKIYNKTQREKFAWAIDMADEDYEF

TMK-1 [9] = assay: Induction of apoptosis in human TMK1 cells after 24 hrs by Annexin V-FITC staining based flow cytometry; assay type: functional, cell-based
TMK-1 [10] = assay: Induction of ROS generation in human TMK1 cells at 0.1 to 1 uM after 30 mins by H2DCFDA staining based flow cytometry; assay type: functional, cell-based
MKN-45 [11] = assay: Induction of apoptosis in human MKN45 cells after 24 hrs by Annexin V-FITC staining based flow cytometry; assay type: functional, cell-based
Lymphocyte = assay: Cytotoxicity against human lymphocytes assessed as reduction in cell viability at 25 uM after 72 hrs by MTT assay; assay type: cell-based
MKN-45 [12] = assay: Induction of apoptosis in human MKN45 cells at 1 uM after 24 hrs by Annexin V-FITC staining based flow cytometry relative to control; assay type: functional
MKN-45 [13] = assay: Induction of ROS generation in human MKN45 cells at 0.1 to 1 uM after 30 mins by H2DCFDA staining based flow cytometry; assay type: functional, cell-based
[14] = Substrate activity at P-gp in human K562/4 cells assessed as test compound accumulation at 2 uM after 1 to 24 hrs by flow cytometry; assay type: ADME, cell-based
[15] = target: T1, DNA topoisomerase 1 (Homo sapiens); assay: Inhibition of human topoisomerase-1 at 1 to 30 uM using supercoiled pBR322 DNA as substrate after 30 mins by agarose gel electrophoresis method

| Compound | Ratio IC50 [1] | IC50 (HCT-116 [2]) [µM] | IC50 (CCRF-CEM) [µM] | IC50 (K562) [µM] | IC50 (HeLa) [µM] | IC50 (HCT-116 [3]) [µM] | IC50 [4] [µM] | Ratio IC50 [5] | IC50 (L1210) [µM] | Activity (TMK-1 [6]) | Drug uptake [7] | inhibition [8] | Activity (TMK-1 [9]) | Activity (TMK-1 [10]) | Activity (MKN-45 [11]) | Activity (Lymphocyte) | Activity (MKN-45 [12]) | Activity (MKN-45 [13]) | Activity [14] | inhibition [15] |
| --- | --- | --- | --- | --- | --- | --- | --- | --- | --- | --- | --- | --- | --- | --- | --- | --- | --- | --- | --- | --- |
| Cc1oc2c(O)c3c(c(O)c2c1CN1CC[C@@H](N)C1)C(=O)c1ccccc1C3=O | 1 | 2.2 | 4.3 | 1.2 | 2.8 | 2.2 | 1.9 | 1.6 | 4.3 |  |  |  |  |  |  |  |  |  |  |  |
| O=C1c2ccccc2C(=O)c2c1c(O)c1occ(C(=O)NC3CCNC3)c1c2O (racemic) | 1.3 | 1 | 1 | 0.9 | 2 | 0.8 | 4.5 | 5 | 1 |  |  |  |  |  |  |  |  |  |  |  |
| O=C1c2ccccc2C(=O)c2c1c(O)c1occ(C(=O)NC3CCNCC3)c1c2O | 1 | 4 | 0.8 | 1.1 | 1.1 | 4.2 | 2.5 | 2.3 | 0.9 |  |  |  |  |  |  |  |  |  |  |  |
| NC1CCCN(C(=O)c2coc3c(O)c4c(c(O)c23)C(=O)c2ccccc2C4=O)C1 (racemic) | 0.8 | 2.5 | 4 | 1.3 | 2.3 | 3 | 2.6 | 2 | 2 |  |  |  |  |  |  |  |  |  |  |  |
| CN1CCN(NC(=O)c2coc3c(O)c4c(c(O)c23)C(=O)c2ccccc2C4=O)CC1 | 1 | 0.8 | 3.2 | 1.1 | 2.2 | 0.8 | 1.5 | 1.4 | 2 |  |  |  |  |  |  |  |  |  |  |  |
| Cc1oc2c(O)c3c(c(O)c2c1CN1CC[C@H](N)C1)C(=O)c1ccccc1C3=O | 0.8 | 2.4 | 3.9 | 1.3 | 2.3 | 3.2 | 1.8 | 1.4 | 4.4 |  |  |  |  |  |  |  |  |  |  |  |
| N[C@H]1CCN(C(=O)c2coc3c(O)c4c(c(O)c23)C(=O)c2ccccc2C4=O)C1 | 1.2 | 3.4 | 1.3 | 1.1 | 1 | 2.8 | 1.5 | 1.3 | 0.7 | 60 - 90% | Active | Dose-dependent effect | Dose-dependent effect | Active | Dose-dependent effect | Non-Toxic | 60 - 90% | Active | Not Active |  |
| NC1CCN(C(=O)c2coc3c(O)c4c(c(O)c23)C(=O)c2ccccc2C4=O)CC1 | 1.7 | 10 | 4 | 2.3 | 4.2 | 6 | 9.6 | 4.2 | 2.4 |  |  |  |  |  |  |  |  |  |  |  |
| N[C@@H]1CCN(C(=O)c2coc3c(O)c4c(c(O)c23)C(=O)c2ccccc2C4=O)C1 | 1 | 5.1 | 4 | 2.3 | 3.3 | 5 | 3.7 | 1.6 | 2.5 |  |  | Dose-dependent effect |  |  |  |  |  |  |  |  |
| Cc1oc2c(O)c3c(c(O)c2c1C(=O)N1CC[C@H](N)C1)C(=O)c1ccccc1C3=O | 1.1 | 1.3 | 0.5 | 0.9 | 0.7 | 1.2 | 1.4 | 1.5 | 0.6 | 60 - 90% |  |  | Dose-dependent effect | Active | Dose-dependent effect |  | 60 - 90% | Active |  | Active |
| Cc1oc2c(Cl)c3c(c(Cl)c2c1C(=O)N1CC[C@H](N)C1)C(=O)c1ccccc1C3=O | 0.9 | 4 | 3.5 | 3.8 | 5 | 4.5 | 5.3 | 1.4 | 1.5 |  |  |  |  |  |  |  |  |  |  |  |
| CN[C@H]1CCN(C(=O)c2coc3c(O)c4c(c(O)c23)C(=O)c2ccccc2C4=O)C1 | 1 | 5.8 | 4.6 | 2.9 | 5 | 5.9 | 5.3 | 1.9 | 3.5 |  |  |  |  |  |  |  |  |  |  |  |
| Cc1oc2c(N)c3c(c(N)c2c1C(=O)N1CC[C@H](N)C1)C(=O)c1ccccc1C3=O | 0.7 | 5.4 | 4 | 9.2 | 3.7 | 7.6 | 8.3 | 0.9 | 3.1 |  |  |  |  |  |  |  |  |  |  |  |
| COc1c2c(c(OC)c3c(C(=O)N4CC[C@H](N)C4)c(C)oc13)C(=O)c1ccccc1C2=O | 1.2 | 50 | 23.2 | 28.6 | 27.9 | 41 | 38.7 | 1.4 | 20 |  |  |  |  |  |  |  |  |  |  |  |
